These results are taken from US20070289032A1, “AGROBACTERIUM TRANSFORMATION OF GUAR” (SAMUEL ROBERTS NOBEL FOUNDATION, priority 2006, published 2007).

Holding throughout (type): cell-based, Cyamopsis tetragonoloba
Test [1] has as its system cotyledonary node explants of guar variety Lewis. In words: Multiple shoot regeneration from cotyledonary node explants on B5 medium with growth regulators (Lewis). The conditions noted are these: percentage of explants that formed shoots; B5 shoot initiation medium, hormone concentrations in μM. The method, then: (§1) Explant preparation. Guar seeds of two American cultivars (Lewis and Kinman; e.g. (Undersander et al., 1991) were surface sterilized in concentrated sulphuric acid for 10 min followed by four washes in ice cold sterile distilled water. Subsequently the seeds were treated with 10% commercial bleach (containing 6.0% free chlorine) for 5 min with a few drops of Tween 20 and washed thoroughly three to four times in sterile distilled water. The sterile seeds were sown in magenta boxes on MS medium (Murashige and Skoog, 1962) with 3% sucrose, 0.8% agar, pH 5.8, and germination was continued for 7-9 days under a 16 h/8 h day/night regime at 25° C. Three-four mm long cotyledonary node explants comprising the meristematic zone were excised from the seedlings and used for shoot regeneration and transformation.
(§2) Shoot regeneration. Shoot regeneration was performed in two different phases; shoot initiation and shoot elongation. For shoot initiation, […] cotyledonary node explants were cultured with the adaxial surface touching the medium in Petri plates (FIG. 1A). The explants were cultured on Gamborg's B5 medium (Gamborg et al., 1968), supplemented with 3% (w/v) sucrose, 0.8% Phyto agar (Caisson Laboratories Inc.), pH 5.8 (shoot initiation medium, SIM) with different combinations of growth regulators (Table 1). […]

Test [2] has as its system cotyledonary node explants of guar variety Kinman. The experiment in a line: Multiple shoot regeneration from cotyledonary node explants on B5 medium with growth regulators (Kinman). The conditions noted are these: percentage of explants that formed shoots; B5 shoot initiation medium, hormone concentrations in μM. As for the experimental part: as §1, §2
The next test has as its system regenerated guar shoots. In words: Root induction from regenerated guar shoots. Particulars: regenerated guar shoots in rooting medium. The source says: Root induction from the regenerated shoots. Non-transgenic shoots (two weeks old) from the shoot elongation medium were subjected to two different rooting procedures. Five 10 mm long shoots were harvested from the shoot elongation medium (SEM), the basal region was cut in order to remove any callus or necrotic tissue and the shoot ends were dipped either in a lawn of Agrobacterium rhizogenes (strain ARqua1) and transferred to root induction medium 1 (Farhaeus medium (Dazzo and Hubbell, 1982) solidified with 0.9-1.0% Gelrite) or directly transferred to root induction medium 2 (½ MS salts, Gamborg's B5 vitamins, 2.5% sucrose, 0.5-2.00 mg/l indole 3-butyric acid (IBA), agar 0.8%, pH 5.8) without any Agrobacterium rhizogenes inoculum. To prepare the A. rhizogenes lawn, a single colony was inoculated in 2 ml liquid Farhaeus medium containing 250 mg/l streptomycin in a 10 ml culture tube and cultured for 2-3 days at 28° C. on a rotary shaker. When the O.D. (600 nm) reached 1.0, 50-120 μl of the suspension was spread on a solid Farhaeus plate containing 250 mg/l streptomycin and 0.3% Gelrite. Within 3 days the bacteria formed a lawn on the plate which was subsequently used for infecting the shoot bases. Roots developed within 4 weeks and the rooted plants were transferred to the soil and grown in a growth chamber at 30° C. and 12 hrs of light.
Study of root anatomy. […]

Consider `O=C(Nc1ccccc1)Nc1cnns1` [TDZ 9.10, Thidiazuron], for which, in test [1], the “Shoot morphogenesis frequency (%) in the genotype Lewis” value was 31.67%. In addition, the “Shoot morphogenesis frequency (%) in the genotype Kinman” value in test [2] is recorded as 33.33%. For `c1ccc(CNc2ncnc3nc[nH]c23)cc1` [BAP 4.44, 6-benzylaminopurine], the “Shoot morphogenesis frequency (%) in the genotype Lewis” value in test [1] came to 25.89%. Besides, the “Shoot morphogenesis frequency (%) in the genotype Kinman” value in test [2] is listed as 26.49%. For `O=C(O)CCCc1c[nH]c2ccccc12` [IBA, indole 3-butyric acid], the “shoots that formed callus at the base” value with regenerated guar shoots is “more than 90%”.
